Inhibition data for 33 compounds are collected here from US8193237B2, “Indole derivative having IκB kinase β inhibitory activity” (Santen Pharmaceutical Co., Ltd., priority 2007, dated 2012).

The test deals with T1, IKKβ (Homo sapiens, UniProt O14920).
T1 construct: purchased Upstate Biotechnology Inc. 14-485
T1 sequence (O14920 1-756): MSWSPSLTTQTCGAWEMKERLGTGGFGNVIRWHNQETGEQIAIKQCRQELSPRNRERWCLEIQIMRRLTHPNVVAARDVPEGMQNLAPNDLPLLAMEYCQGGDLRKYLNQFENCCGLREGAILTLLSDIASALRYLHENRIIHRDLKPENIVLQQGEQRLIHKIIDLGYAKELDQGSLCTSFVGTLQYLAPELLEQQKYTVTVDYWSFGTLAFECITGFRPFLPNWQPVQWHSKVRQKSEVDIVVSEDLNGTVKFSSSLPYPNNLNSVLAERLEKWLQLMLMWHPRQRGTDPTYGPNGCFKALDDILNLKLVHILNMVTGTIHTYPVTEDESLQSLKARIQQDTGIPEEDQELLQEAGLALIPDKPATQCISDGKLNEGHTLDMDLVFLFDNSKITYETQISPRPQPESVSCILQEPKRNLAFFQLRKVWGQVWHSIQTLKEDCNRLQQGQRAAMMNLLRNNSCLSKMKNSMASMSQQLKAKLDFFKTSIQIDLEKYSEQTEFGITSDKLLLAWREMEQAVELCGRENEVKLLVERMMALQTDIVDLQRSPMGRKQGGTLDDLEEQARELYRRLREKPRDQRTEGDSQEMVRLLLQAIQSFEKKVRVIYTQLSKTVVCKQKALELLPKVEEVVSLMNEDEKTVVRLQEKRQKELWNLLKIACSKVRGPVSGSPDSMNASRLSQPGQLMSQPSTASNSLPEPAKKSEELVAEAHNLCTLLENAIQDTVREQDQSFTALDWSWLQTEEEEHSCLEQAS
Put plainly: IKKβ inhibition assay by fluorescence polarization (IMAP kit). It is filed as biochemical. As to conditions: test compound at 1 μM; inhibition rate exceeding 100% is indicated as 100%. As for the experimental part:
In order to evaluate IKKβ inhibitory activity of the present compounds, an IKKβ inhibition assay by the fluorescence polarization method was conducted.
The assay was conducted using IMAP™ IKKβ assay kit (manufactured by Molecular Devices Corporation, catalogue No. R8115) or IMAP™ FP Screening Express kit (manufactured by Molecular Devices Corporation, catalogue No. R8127) and in accordance with the protocol attached to each kit. The specific methods are described below. (Preparation of Reagents)
1) Complete Reaction Buffer: a complete reaction buffer was so prepared as to obtain a final concentration of 10 mM Tris-HCL (pH 7.2), 10 mM magnesium chloride, 0.1% bovine serum albumin, and 1 mM dithiothreitol.
2) Substrate Working Solution: 400 nM of a substrate working solution was prepared by dissolving and diluting a fluorescein-labeled IKKβ substrate peptide (amino acid sequence: GRHDSGLDSMK) with the complete reaction buffer.
3) Enzyme Working Solution: 0.2 units/mL of an enzyme working solution was prepared by diluting IKKβ solution (manufactured by Upstate Biotechnology Inc., catalogue No. 14-485) with the complete reaction buffer.
4) ATP Working Solution: 8 μM of an ATP working solution was prepared by dissolving ATP into ultrapure water followed by diluting it with the complete reaction buffer.
5) IMAP binding solution: After diluting an IMAP binding buffer with ultrapure water, an IMAP binding solution was prepared by diluting an IMAP binding reagent with the diluted IMAP binding buffer.
A test compound was dissolved in dimethylsulfoxide followed by diluting it with the complete reaction buffer to prepare 4 μM of a test compound solution.
1) To a 384-well plate, the test compound solution, the enzyme working solution, the substrate working solution, and the ATP working solution were added in an amount of 5 μL per well.
2) Incubation was performed at a room temperature for 60 minutes under light shielding.
3) The IMAP binding solution was added in an amount of 60 μL per well.
4) Incubation was performed at a room temperature for 30 minutes under light shielding.
5) Fluorescence polarization value of each well was measured by using Analyst™ HT (multimode plate reader manufactured by Molecular Devices Corporation) and Criterion Host Software v2.00 (manufactured by Molecular Devices Corporation).
6) Operations were performed in the same manner as in 1) to 5) except for changing the test compound to 0.4% dimethylsulfoxide. The obtained result was designated as a control.
7) Operations were performed in the same manner as in 1) to 5) except for changing the test compound and the enzyme working solution to 0.4% dimethylsulfoxide and the complete reaction buffer, respectively. The obtained result was designated as a background.
An IKKβ inhibition rate (%) was calculated by the following equation.
IKKβ inhibition rate (%)=100×{1−(fluorescence polarization value of test compound−fluorescence polarization value of background)/(fluorescence polarization value of control−fluorescence polarization value of background)}

For `NC(=O)Nc1c(C(N)=O)c2ccc(Br)cc2n1O` [Compound 1-1, 2-Aminocarbonylamino-6-bromo-1-hydroxyindole-3-carboxamide], testing at 1 µM gave an inhibition of 86%. For the compound `Cc1ccc2[nH]c(NC(N)=O)c(C(N)=O)c2c1` [Compound 1-2, 2-Aminocarbonylamino-5-methylindole-3-carboxamide], the inhibition at 1 µM was determined as 55%. For `CC(=O)Nc1ccc2c(C(N)=O)c(NC(N)=O)[nH]c2c1` [Compound 2-1, 6-Acetylamino-2-aminocarbonylaminoindole-3-carboxamide] the value was 80%; for `NC(=O)Nc1[nH]c2cc(NC(=O)c3ccccc3)ccc2c1C(N)=O` [Compound 2-2, 2-Aminocarbonylamino-6-benzoylaminoindole-3-carboxamide], 49%. For the compound `NC(=O)Nc1[nH]c2cc(NC(=O)Nc3ccccc3)ccc2c1C(N)=O` [Compound 2-3, 2-Aminocarbonylamino-6-(3-phenylureido)indole-3-carboxamide], at 1 µM the inhibition was 56%.

Turning to `CN(C)c1ccc2c(C(N)=O)c(NC(N)=O)[nH]c2c1` [Compound 2-4, 2-Aminocarbonylamino-6-dimethylaminoindole-3-carboxamide], 1 µM produced 95% inhibition. Consider `NC(=O)Nc1[nH]c2cc(N3CCCC3)ccc2c1C(N)=O` [Compound 2-5, 2-Aminocarbonylamino-6-(pyrrolidin-1-yl)indole-3-carboxamide], for which 1 µM produced 86% inhibition. For `NC(=O)Nc1[nH]c2cc(-n3cccc3)ccc2c1C(N)=O` [Compound 2-9, 2-Aminocarbonylamino-6-(pyrrol-1-yl)indole-3-carboxamide] the value was 100%; for `NC(=O)Nc1[nH]c2ccccc2c1C(N)=O` [Compound 2-10, 2-Aminocarbonylaminoindole-3-carboxamide], 75%.

`Cc1c(Br)ccc2c(C(N)=O)c(NC(N)=O)[nH]c12` [Compound 2-11, 2-Aminocarbonylamino-6-bromo-7-methylindole-3-carboxamide] registered an inhibition at 1 µM of 96%. With `NC(=O)Nc1[nH]c2cc(C(F)(F)F)ccc2c1C(N)=O` [Compound 2-16, 2-Aminocarbonylamino-6-trifluoromethylindole-3-carboximide], the inhibition at 1 µM came to 95%. Consider `COC(=O)c1ccc2c(C(N)=O)c(NC(N)=O)[nH]c2c1` [Compound 2-17, 2-aminocarbonylamino-6-methoxycarbonylindole-3-carboxamide], for which the inhibition at 1 µM was 100%. Next, `NC(=O)Nc1[nH]c2cc(Br)ccc2c1C(N)=O` [Compound 3-1, 2-Aminocarbonylamino-6-bromoindole-3-carboxamide]: 100%; `NC(=O)Nc1[nH]c2cc(-c3ccc(F)cc3)ccc2c1C(N)=O` [Compound 4-1, 2-Aminocarbonylamino-6-(4-fluorophenyl)indole-3-carboxamide]: 97%. For `NC(=O)Nc1[nH]c2cc(-c3ccccc3)ccc2c1C(N)=O` [Compound 4-2, 2-Aminocarbonylamino-6-phenylindole-3-carboxamide] the value was 100%; for `COc1cccc(-c2ccc3c(C(N)=O)c(NC(N)=O)[nH]c3c2)c1` [Compound 4-4, 2-Aminocarbonylamino-6-(3-methoxyphenyl)indole-3-carboxamide], 98%. `NC(=O)Nc1[nH]c2cc(-c3cccs3)ccc2c1C(N)=O` [Compound 4-8, 2-Aminocarbonylamino-6-(thiophen-2-yl)indole-3-carboxamide] returned an inhibition at 1 µM of 100%. For `NC(=O)Nc1[nH]c2cc(-c3cccnc3)ccc2c1C(N)=O` [Compound 4-9, 2-Aminocarbonylamino-6-(pyridin-3-yl)indole-3-carboxamide] the value was 100%. For `NC(=O)Nc1[nH]c2cc(-c3ccccc3F)ccc2c1C(N)=O` [Compound 4-10, 2-Aminocarbonylamino-6-(2-fluorophenyl)indole-3-carboxamide] the value was 100%; for `NC(=O)Nc1[nH]c2cc(-c3cccc(F)c3)ccc2c1C(N)=O` [Compound 4-11, 2-Aminocarbonylamino-6-(3-fluorophenyl)indole-3-carboxamide], 100%; for `N#Cc1cccc(-c2ccc3c(C(N)=O)c(NC(N)=O)[nH]c3c2)c1` [Compound 4-15, 2-Aminocarbonylamino-6-(3-cyanophenyl)indole-3-carboxamide], 100%. The compound `NC(=O)Nc1[nH]c2cc(-c3cccc([N+](=O)[O-])c3)ccc2c1C(N)=O` [Compound 4-16, 2-Aminocarbonylamino-6-(3-nitrophenyl)indole-3-carboxamide] registered an inhibition at 1 µM of 100%. With `CS(=O)(=O)Nc1cccc(-c2ccc3c(C(N)=O)c(NC(N)=O)[nH]c3c2)c1` [Compound 4-17, 2-Aminocarbonylamino-6-(3-methylsulfonylaminophenyl)indole-3-carboxamide], the inhibition at 1 µM is 100%. For `NC(=O)Nc1[nH]c2cc(-c3ccsc3)ccc2c1C(N)=O` [Compound 4-18, 2-Aminocarbonylamino-6-(thiophen-3-yl)indole-3-carboxamide] the value was 98%; for `NC(=O)Nc1[nH]c2cc(-c3ccco3)ccc2c1C(N)=O` [Compound 4-19, 2-Aminocarbonylamino-6-(furan-2-yl)indole-3-carboxamide], 100%; for `NC(=O)Nc1[nH]c2cc(-c3ccoc3)ccc2c1C(N)=O` [Compound 4-22, 2-Aminocarbonylamino-6-(furan-3-yl)indole-3-carboxamide], 100%. In turn, `NC(=O)Nc1[nH]c2cc(-c3ccsc3Cl)ccc2c1C(N)=O` [Compound 4-23, 2-Aminocarbonylamino-6-(2-chlorothiophen-3-yl)indole-3-carboxamide] returned an inhibition at 1 µM of 100%. `NC(=O)Nc1[nH]c2cc(-c3cnc4ccccc4c3)ccc2c1C(N)=O` [Compound 4-36, 2-Aminocarbonylamino-6-(quinolin-3-yl)indole-3-carboxamide] displayed an inhibition at 1 µM of 99%.

On to `C=Cc1ccc2c(C(N)=O)c(NC(N)=O)[nH]c2c1` [Compound 4-38, 2-Aminocarbonylamino-6-vinylindole-3-carboxamide], for which the inhibition at 1 µM amounted to 100%. Next, `COC/C=C/c1ccc2c(C(N)=O)c(NC(N)=O)[nH]c2c1` [Compound 4-58, 2-Aminocarbonylamino-6-[(E)-3-methoxy-1-propenyl]indole-3-carboxamide]: 99%.

As to `NC(=O)Nc1[nH]c2cc(-c3ccc4[nH]ccc4c3)ccc2c1C(N)=O` [Compound 4-65, 2-Aminocarbonylamino-6-(indol-5-yl)indole-3-carboxamide], the inhibition at 1 µM was 100%. For `CCC/C=C/c1ccc2c(C(N)=O)c(NC(N)=O)[nH]c2c1` [Compound 4-67, 2-Aminocarbonylamino-6-[(E)-1-pentenyl]indole-3-carboxamide] the value was 94%; for `CN(C)c1ccc(-c2ccc3c(C(N)=O)c(NC(N)=O)[nH]c3c2)cc1` [Compound 4-78, 2-Aminocarbonylamino-6-(4-dimethylaminophenyl)indole-3-carboxamide], 95%.

In general, inhibition refers to the percentage by which the read-out fell short of the control.
